Data on 9 molecules can be found in patent publication US11673876B2, “Substituted aminobenzyl heteroaryl compounds as EGFR and/or PI3K inhibitors” (Mekanistic Therapeutics LLC, priority 2020, dated 2023).

In brackets after ≈: the same amount, converted by molar mass. Read-outs that look alike come from different tables or passages of the source. Where only a bound is given, the exact number is not on record here.

Usually solubility stands for how much of the substance goes into solution per volume.

Data set [1] is described as follows: Solubility determination (PBS 7.4, SIF, SGF). Conditions: for solubility at 2 h: kinetic from dmso stock. Format: physicochemical. As to the method:
Preparation of stock solutions: The stock solutions of test compounds and control compound diclofenac were prepared in DMSO at the concentrations of 10 mM.
Simulated Gastric Fluid (SGF): An aqueous mixture including hydrochloric acid, sodium chloride, and pepsin (pH=1.2).
Simulated Intestinal Fluid (SIF): Prepared by dissolving 6.8 g of KH2PO4 into about 500 mL ultrapure water and adjust the solution to a pH 6.8 with 0.1 M NaOH. 10 g trypsin is then dissolved into ultrapure water. The two solutions are mixed well and diluted with ultrapure water to a final volume of 1000 mL.
485 μL of (SIF, SGF, PBS 7.4, FESSIF, or FESSGF) was added into each vial of the cap-less Solubility Sample plate. The assay was performed in duplicate. Add one stir stick to each vial and seal using a molded PTFE/Silicone plug. […] After completion of the 2 hours, plugs were removed and the stir sticks were removed using a big magnet, the samples from the Solubility Sample plate were transferred into the filter plate. Using the Vacuum Manifold, all the samples were filtered. Aliquot of 5 μL and 5 μL DMSO were taken from the filtrate followed by addition of 490 μL of a mixture of H2O and acetonitrile containing internal standard (1:1). A certain proportion of ultrapure water was used to dilute the diluent according to the peak shape. The dilution factor was changed according to the solubility values and the LC-MS signal response.
Preparation of 300 μM standards (STD): From the 10 mM DMSO STD plate, 6 μL was transferred into the remaining empty plate, and then 194 μL of DMSO was added to that plate to have a STD concentration of 300 μM. From the 300 μM DMSO STD plate, 5 μL DMSO STD and 5 μL SIF was transferred into the remaining empty plate, and then 490 μL of a mixture of H2O and acetonitrile containing internal standard (1:1) was added to that plate to have a final STD concentration of 3 μM. A certain proportion of ultrapure water was used to dilute the diluent according to the peak shape. The concentrations of the standard samples were changed according to the LC-MS signal response.
Procedure for sample analysis: The plate was placed into the well plate autosampler. The samples were evaluated by LC-MS/MS analysis.
Data analysis: All calculations were carried out using Microsoft Excel. The filtrate was analyzed and quantified against a standard of known concentration using LC coupled with mass spectral peak identification and quantitation. Solubility values of the test compound and control compound were calculated as follows: […]
Any value of the compounds that was not within the specified limits was rejected and the experiment was repeated.

Data set [2] is described as follows: Metabolic stability in human liver microsomes. Format: in vitro ADME. As to the method:
Working solution: 5 μL of compound and control stock solution (10 mM in dimethyl sulfoxide (DMSO)) were diluted with 495 μL of acetonitrile (ACN) (intermediate solution concentration: 100 μM, 99% ACN)
NADPH Cofactor Preparation: NADPH powder: β-Nicotinamide adenine dinucleotide phosphate reduced form, tetrasodium salt; NADPH·4Na. The appropriate amount of NADPH powder was weighed and diluted into a 10 mM MgCl2 solution (working solution concentration: 10 unit/mL; final concentration in reaction system: 1 unit/mL)
Liver Microsomes Preparation: The appropriate concentrations of microsome working solutions were prepared in 100 mM potassium phosphate buffer. Cold (4° C.) acetonitrile (ACN) containing 200 ng/mL tolbutamide and 200 ng/mL labetalol as internal standards (1S) was used as the stop solution
Assay Procedure: Pre-warm empty ‘Incubation’ plates T60 and NCF60 for 10 minutes. Dilute liver microsomes to 0.56 mg/mL in 100 mM phosphate buffer. Transfer 445 μL microsome working solutions (0.56 mg/mL) into pre-warmed ‘Incubation’ plates T60 and NCF60, Then pre-incubate ‘Incubation’ plates T60 and NCF60 for 10 min at 37° C. with constant shaking. Transfer 54 μL liver microsomes to blank plate, then add 6 μL NAPDH cofactor to blank plate, and then add 180 μL quenching solution to blank plate. Add 5 μL compound working solution (100 μM) into ‘incubation’ plates (T60 and NCF60) containing microsomes and mix 3 times thoroughly.
For the NCF60 plate, add 50 μL of buffer and mix 3 times thoroughly. Start timing; plate will be incubated at 37° C. for 60 min while shaking. In ‘Quenching’ plate T0, add 180 μL quenching solution and 6 μL NAPDH cofactor. Ensure the plate is chilled to prevent evaporation. For the T60 plate, mix 3 times thoroughly, and immediately remove 54 μL mixture for the 0-min time point to ‘Quenching’ plate. Then add 44 μL NAPDH cofactor to incubation plate (T60). Start timing; plate will be incubated at 37° C. for 60 min while shaking. At 5, 10, 20, 30, and 60 min, add 180 μL quenching solution to ‘Quenching’ plates, mix once, and serially transfer 60 μL sample from T60 plate per time point to ‘Quenching’ plates. For NCF60: mix once, and transfer 60 μL sample from the NCF60 incubation to ‘Quenching’ plate containing quenching solution at the 60-min time point. All sampling plates are shaken for 10 min, then centrifuged at 4000 rpm for 20 minutes at 4° C. Transfer 80 μL supernatant into 240 μL HPLC water, and mix by plate shaker for 10 min. Each bioanalysis plate was sealed and shaken for 10 minutes prior to LC-MS/MS analysis.
The equation of first order kinetics was used to calculate T½ and CLint(mic) (μL/min/mg). Equation of first order kinetics: […]
The biological stability of the compounds of the disclosure can be measured by determining its ½ life in the presence microsomes. Presented in Table 5, is the ½ life of selected compounds of the disclosure in the presence of human liver microsomes (HLM) or mouse liver microsomes (MLM) as described above. In Table 5, ½ life is presented as “++++” (value is greater than 60 minutes), “+++” (value is greater than 30 minutes and less than or equal to 60 minutes), “++” (value is greater than 15 minutes and less than or equal to 30 minutes) and “+” (value is 15 minutes or less).
Background: Liver microsomes are vesicles of endoplasmic reticulum, rich in cytochrome P450 enzymes.

[3] abbreviates: aqueous buffer, PBS pH 7.4, 25° C., 2 hours, read-out: Solubility pH 7.4 PBS buffer.
[4] abbreviates: simulated gastric fluid (SGF), simulated gastric fluid pH 1.2, 25° C., 2 hours, read-out: Solubility SGF.
[5] abbreviates: simulated intestinal fluid (SIF), simulated intestinal fluid pH 6.8, 25° C., 2 hours, read-out: Solubility SIF.

As to `CS(=O)(=O)Nc1cc(-c2ccc3ncnc(NCc4ccccc4)c3c2)cnc1Cl` [Comparative Compound 1, N-[5-[4-(benzylamino)quinazolin-6-yl]-2-chloro-3-pyridyl]methanesulfonamide, reference compound], the solubility at 2 h in data set [1] (setting [3]) is at most 20 µM; in data set [1] (setting [4]), above 200 µM; in data set [1] (setting [5]), at most 20 µM. The “½ life minutes (HLM)” value in data set [2] is given as “++++ (value is greater than 60 minutes)”.
Take `CS(=O)(=O)Nc1cc(-c2ccc3ncnc(Nc4ccc(F)c(Cl)c4)c3c2)cnc1Cl` [Comparative Compound 2, reference compound]: the solubility at 2 h was at most 20 µM in data set [1] (setting [3]), above 200 µM in data set [1] (setting [4]) and at most 20 µM in data set [1] (setting [5]). For the same molecule, the “½ life minutes (HLM)” value in data set [2] is “++++ (value is greater than 60 minutes)”.
In the case of `CS(=O)(=O)Nc1cncc(-c2ccc3ncnc(NCc4ccccc4)c3c2)c1` [Comparative Compound 3, reference compound], the “Solubility SIF” value in data set [1] (simulated intestinal fluid pH 6.8, 25° C., 2 hours) is recorded as “* (value is 20 μM or less)”. For the same molecule, in data set [2], the “½ life minutes (HLM)” value was “++++ (value is greater than 60 minutes)”.
Turning to `C[C@@H](Nc1ncnc2ccc(-c3cnc(Cl)c(NS(C)(=O)=O)c3)cc12)c1ccccc1` [Compound 2R, N-(2-chloro-5-(4-((1R-phenylethyl)amino)quinazolin-6-yl)pyridin-3-yl)methanesulfonamide], the results for the “improvement in solubility compared to Comparative Compounds 1-3” value in data set [1] (PBS buffer) and in data set [1] (simulated intestinal fluid) were “same improvement in solubility” and “at least 5 times”, respectively. Further, the solubility at 2 h in data set [1] (setting [3]) is 100 to 200 µM (≈ 45.4 to 90.8 µg/mL); in data set [1] (setting [4]), above 200 µM; in data set [1] (setting [5]), 100 to 200 µM (≈ 45.4 to 90.8 µg/mL). The “½ life minutes (HLM)” value in data set [2] was “++++ (value is greater than 60 minutes)”.
Turning to `C[C@H](Nc1ncnc2ccc(-c3cnc(Cl)c(NS(C)(=O)=O)c3)cc12)c1ccccc1` [Compound 2S, N-(2-chloro-5-(4-((1S-phenylethyl)amino)quinazolin-6-yl)pyridin-3-yl)methanesulfonamide], the “improvement in solubility compared to Comparative Compounds 1-3” value in data set [1] (simulated intestinal fluid) is recorded as “at least 5 times”. In data set [1] (setting [5]), the solubility at 2 h is 100 to 200 µM (≈ 45.4 to 90.8 µg/mL). Also, the “½ life minutes (HLM)” value in data set [2] is recorded as “++++ (value is greater than 60 minutes)”.
In the case of `CC(Nc1c(C#N)cnc2ccc(-c3cnc(N)nc3)cc12)c1ccccc1` (centres unmarked) [Compound 53, 6-(2-aminopyrimidin-5-yl)-4-(1-phenylethylamino) quinoline-3-carbonitrile], the solubility at 2 h in data set [1] (setting [5]) was 20 to 100 µM (≈ 7.33 to 36.6 µg/mL). Besides, the “½ life minutes (HLM)” value in data set [2] is “++++ (value is greater than 60 minutes)”.
`C[C@@H](Nc1c(C#N)cnc2ccc(-c3cnc(N)nc3)cc12)c1ccccc1` [Compound 53R, (R)-6-(2-aminopyrimidin-5-yl)-4-((1-phenylethyl)amino)quinoline-3-carbonitrile]: in data set [1] (setting [5]), the solubility at 2 h was 20 to 100 µM (≈ 7.33 to 36.6 µg/mL). Further, the “½ life minutes (HLM)” value in data set [2] is “+++ (value is greater than 30 minutes and less than or equal to 60 minutes)”.
For `CC(Nc1c(C#N)cnc2ccc(-c3cnc4[nH]ncc4c3)cc12)c1ccccc1` (centres unmarked) [Compound 54, 4-(1-phenylethylamino)-6-(1H-pyrazolo[3,4-b]pyridin-5-yl)quinoline-3-carbonitrile], the solubility at 2 h in data set [1] (setting [5]) is at most 20 µM. Besides, the “½ life minutes (HLM)” value in data set [2] is “+++ (value is greater than 30 minutes and less than or equal to 60 minutes)”.
As to `C[C@@H](Nc1ncnc2ccc(-c3cnc(Cl)c(NS(C)(=O)=O)c3)cc12)c1ccc(F)cc1` [Compound 111R, N-(2-chloro-5-(4-((1R-(4-fluorophenyl)ethyl)amino)quinazolin-6-yl)pyridin-3-yl)methanesulfonamide], the solubility at 2 h in data set [1] (setting [3]) is 20 to 100 µM (≈ 9.44 to 47.2 µg/mL); in data set [1] (setting [4]), above 200 µM; in data set [1] (setting [5]), 20 to 100 µM (≈ 9.44 to 47.2 µg/mL). The “½ life minutes (HLM)” value in data set [2] is on record as “++++ (value is greater than 60 minutes)”.
